Assay results from patent US20260041683A1, “Compounds with Anti-Acinetobacter Baumannii Activity” (University of Kentucky Research Foundation, priority 2022, published 2026).
Values after ≈ are worked out from the molar mass of the structure shown. Read-outs that look alike come from different tables or passages of the source.

Legend:
[1] = test system: P. aeruginosa ATCC 27853; assay: MIC determination; type: cell-based; conditions: Pseudomonas aeruginosa, ATCC27853
[2] = test system: S. aureus ATCC 25923; assay: MIC determination; type: cell-based; conditions: Staphylococcus aureus, ATCC25923
[3] = test system: Ab ATCC 19606 (strain I); assay: MIC determination (double dilution, Mueller-Hinton broth); type: cell-based, Acinetobacter baumannii; conditions: Acinetobacter baumannii, ATCC19606
Procedure: All bacterial strains listed above were stored at −80° C. All strains were streaked on Mueller-Hinton (MH) plates and allowed to grow at 37° C. overnight. […] The resulting culture was diluted 1:1000 and added to the prepared serially doubly diluted compound solutions in 96-well plates. For M. smegmatis, a 1:100 dilution of the bacteria was done in MH. All MIC values were determined using 96-well plates with low evaporation seals at least in duplicate. For each row, one well was reserved for sterile control (which consisted of 200 μL of MH medium) and another well was reserved for growth control (which consisted of 100 μL of MH medium seeded with 100 μL of bacterial culture).
(§1) Minimum inhibitory concentrations (MIC) of all compounds from the series were measured in liquid cultures of different Ab strains by a double-dilution method in Mueller-Hinton broth. Initially, the activity of all 46 compounds against Ab ATCC 19606 (a control strain) and Ab ATCC BAA1605 (a multidrug-resistant strain) (Table 1; data shown for 27 representative compounds) was measured.

[4] = test system: E. cloacae ATCC 13047; assay: MIC determination; type: cell-based; conditions: Enterobacter cloacae, ATCC13047
[5] = test system: S. enterica ATCC 14028; assay: MIC determination; type: cell-based; conditions: Salmonella enterica, ATCC14028
[6] = test system: Gram-negative bacteria; assay: MIC determination, panel statement; type: cell-based; conditions: moderate activity
[7] = test system: all 43 strains of A. baumannii (41 CDC strains and 2 ATCC strains); assay: MIC value statistics for all A. baumannii strains; type: cell-based, Acinetobacter baumannii; conditions: of 43 A. baumannii strains
Procedure: All bacterial strains listed above were stored at −80° C. All strains were streaked on Mueller-Hinton (MH) plates and allowed to grow at 37° C. overnight. Enough colonies were scraped from the plate and suspended in MH broth with vortexing to reach an attenuance at 600 nm (OD600) of ˜0.5. The resulting culture was diluted 1:1000 and added to the prepared serially doubly diluted compound solutions in 96-well plates. […]. For each row, one well was reserved for sterile control (which consisted of 200 μL of MH medium) and another well was reserved for growth control (which consisted of 100 μL of MH medium seeded with 100 μL of bacterial culture).
Having established that the observed activity is selective to A. baumannii, all synthesized compounds were tested against a panel of antibiotic resistant A. baumannii from the Antimicrobial Resistant (AR) Isolate Bank from the CDC along with strains I and J (Table Si). […]. Based on this statistical analysis, the best compound is 5e followed closely by 3e.

[8] = test system: Ab ATCC BAA1605 (strain J, multidrug-resistant); assay: MIC determination; type: cell-based; conditions: Acinetobacter baumannii
Procedure: All bacterial strains listed above were stored at −80° C. All strains were streaked on Mueller-Hinton (MH) plates and allowed to grow at 37° C. overnight. Enough colonies were scraped from the plate and suspended in MH broth with vortexing to reach an attenuance at 600 nm (OD600) of ˜0.5. The resulting culture was diluted 1:1000 and added to the prepared serially doubly diluted compound solutions in 96-well plates. For M. smegmatis, a 1:100 dilution of the bacteria was done in MH. All MIC values were determined using 96-well plates with low evaporation seals at least in duplicate. For each row, one well was reserved for sterile control (which consisted of 200 μL of MH medium) and another well was reserved for growth control (which consisted of 100 μL of MH medium seeded with 100 μL of bacterial culture).
as §1

[9] = test system: K. pneumoniae ATCC 27736; assay: MIC determination; type: cell-based; conditions: Klebsiella pneumoniae, ATCC27736
[10] = test system: E. coli MC1061; assay: MIC determination; type: cell-based; conditions: Escherichia coli; Table 5; Mueller-Hinton medium; D = E. coli MC1061; read-out: MIC strain D
[11] = test system: B. anthracis Sterne F32; assay: microbe, parasite or virus in culture; type: cell-based; conditions: Bacillus anthracis
[12] = test system: S. epidermidis ATCC 12228; assay: MIC determination; type: cell-based; conditions: Staphylococcus epidermidis, ATCC12228
[13] = test system: Y. pestis CO92; assay: microbe, parasite or virus in culture; type: cell-based; conditions: Yersinia pestis, CO92, read-out: MIC Y. pestis CO92
[14] = test system: M. smegmatis; assay: MIC determination; type: cell-based, Mycobacterium smegmatis; conditions: Mycolicibacterium smegmatis; Table 4
[15] = test system: Ab ATCC 19606; assay: Time-kill curves
[16] = test system: Ab ATCC 19606; assay: Development of resistance, 15-passage MIC assay; type: cell-based, Acinetobacter baumannii; conditions: Acinetobacter baumannii, ATCC19606, read-out: MIC before passaging
[17] = test system: K. pneumoniae ATCC BAA 1705; assay: MIC determination; type: cell-based; conditions: Klebsiella pneumoniae, BAA1705; Table 3
[18] = test system: E. coli ATCC BAA 2469; assay: MIC determination; type: cell-based; conditions: Escherichia coli, BAA2469; Table 3
[19] = test system: human embryonic kidney cells (HEK-293); assay: Mammalian cytotoxicity assay (resazurin); conditions: HEK-293, 32 μg/mL (printed 32 g/mL for 3e), 24 h
[20] = test system: murine red blood cells (mRBCs); assay: Hemolysis assay; type: cell-based; conditions: 32 g/mL as printed, 37° C.
Procedure: The cells were then washed using PBS (3×) by spinning at 1,000 rpm for 7 min. After washing, mRBCs were counted using a hemacytometer and diluted in PBS to 5×10^7 cells/mL. All the tested compounds were diluted (32 μg/mL and 8 μg/mL) in PBS in Eppendorf tubes (500 μL volume) and 100 μL were added to each of the columns of the 96-well plate except for column 1. A positive control (1% Triton-X®, TX), a negative control (DMSO), and wells with no mRBCs to account for any background absorbance were used in the 96-well plate. After the addition of the compounds to the plate, 100 μL of mRBCs were added to each well and plates were incubated at 37° C. for 30 min. The plates were then spun at 1,000 rpm for 10 min till the mRBCs settle at the bottom of the plates. 100 μL of supernatant was then transferred to a new 96-well plate and the absorbance at 500 nm was read using a spectrophotometer (SpectraMax M5). Percent hemolysis was calculated using the following equation after subtraction of the background absorbance.
To test the safety of the compounds, they were for exampled for hemolytic effect on murine red blood cells (FIG. 7).

[21] = Table 5, Mueller-Hinton medium, G = P. aeruginosa ATCC 27853, read-out: MIC strain G
[22] = Table 5, Mueller-Hinton medium, B = S. aureus ATCC 25923, read-out: MIC strain B
[23] = Table 5, Mueller-Hinton medium, I = A. baumannii ATCC 19606, read-out: MIC strain I
[24] = Table 5, Mueller-Hinton medium, E = E. cloacae ATCC 13047, read-out: MIC strain E
[25] = Table 5, Mueller-Hinton medium, H = S. enterica ATCC 14028, read-out: MIC strain H
[26] = Table 5, Mueller-Hinton medium, J = A. baumannii BAA1605, read-out: MIC strain J
[27] = Table 5, Mueller-Hinton medium, F = K. pneumoniae ATCC 27736, read-out: MIC strain F
[28] = STERNEF32, read-out: MIC strain A
[29] = Table 5, Mueller-Hinton medium, C = S. epidermidis ATCC 12228, read-out: MIC strain C
[30] = Table 1, control strain, read-out: MIC Ab ATCC 19606
[31] = Table 1, multidrug-resistant strain, read-out: MIC Ab ATCC BAA 1605
[32] = Table 3, read-out: MIC P. aeruginosa ATCC 27853
[33] = Table 3, positive control strain, read-out: MIC A. Baumannii ATCC BAA 1605
[34] = Table 3, read-out: MIC K. pneumoniae ATCC 27736

| SMILES | MIC [1, 21] | MIC [2, 22] | MIC [3, 23] | MIC [4, 24] | MIC [5, 25] | MIC [6] | number of compound/strain combinations with MIC value 0.25 μg/mL [7] | number of compound/strain combinations with MIC value 0.5 μg/mL [7] | number of compound/strain combinations with MIC value 1 μg/mL [7] | number of compound/strain combinations with MIC value ≤0.125 μg/mL [7] | MIC [8, 26] | MIC [9, 27] | MIC [10] | MIC [11, 28] | MIC [12, 29] | MIC [3, 30] | MIC [8, 31] | number of compound/strain combinations with MIC value 2 μg/mL [7] | also measured |
| --- | --- | --- | --- | --- | --- | --- | --- | --- | --- | --- | --- | --- | --- | --- | --- | --- | --- | --- | --- |
| O=C(NNc1ccc(Cl)cc1)c1ccccc1 [Compound 10e] | > 64 µg/mL | 64 µg/mL (≈ 259 µM) | 0.25 µg/mL (≈ 1.01 µM) | 16 µg/mL (≈ 64.9 µM) | 64 µg/mL (≈ 259 µM) | 4 to 16 µg/mL (≈ 16.2 to 64.9 µM) | 23 | 6 | 1 | 13 | 0.5 µg/mL (≈ 2.03 µM) | 16 µg/mL (≈ 64.9 µM) | 16 µg/mL (≈ 64.9 µM) | > 64 µg/mL | 64 µg/mL (≈ 259 µM) | – | – | – | – |
| O=C(NNc1ccc(Cl)cc1)c1ccccn1 [Compound 2e] | > 64 µg/mL | > 64 µg/mL | 0.25 µg/mL (≈ 1.01 µM) | 64 µg/mL (≈ 258 µM) | 64 µg/mL (≈ 258 µM) | – | 16 | 21 | 1 | 5 | 0.25 µg/mL (≈ 1.01 µM) | 64 µg/mL (≈ 258 µM) | 16 µg/mL (≈ 64.6 µM) | > 64 µg/mL | > 64 µg/mL | 0.25 µg/mL (≈ 1.01 µM) | 0.25 µg/mL (≈ 1.01 µM) | – | MIC ([2]; Table 4, read-out: MIC S. Aureus ATCC 25923): > 16 µg/mL; MIC ([4]; Table 4, read-out: MIC E. cloacae ATCC 13047): > 16 µg/mL; MIC ([5]; Table 4, read-out: MIC S. enterica ATCC 14028): > 16 µg/mL; MIC [13]: 16 µg/mL (≈ 64.6 µM); MIC ([11]; STERNEF32, read-out: MIC B. anthracis Sterne F32): > 16 µg/mL; MIC [14]: 4 µg/mL (≈ 16.1 µM); MIC ([12]; Table 4, read-out: MIC S. epidermidis ATCC 12228): > 16 µg/mL |
| O=C(O)c1cn(C2CC2)c2cc(N3CCNCC3)c(F)cc2c1=O [CIP, ciprofloxacin, reference compound] | 0.25 µg/mL (≈ 0.754 µM) | ≤ 0.0625 µg/mL | 1 µg/mL (≈ 3.02 µM) | – | ≤ 0.0625 µg/mL | – | – | – | – | – | 2 µg/mL (≈ 6.04 µM) | – | ≤ 0.0625 µg/mL | 1 µg/mL (≈ 3.02 µM) | ≤ 0.0625 µg/mL | – | – | – | bacteriostatic or bactericidal (time-kill) ([15]; 1×MIC and 4×MIC, up to 24 h): bactericidal; reduction of colony count ([15]; time-kill): 4100 fold; MIC [16]: 2 µg/mL (≈ 6.04 µM) |
| COc1cccc(NNC(=O)c2ccccn2)c1 [Compound 2c] | – | – | – | – | – | – | 5 | 6 | 28 | 1 | – | – | – | – | – | 0.5 µg/mL (≈ 2.06 µM) | 1 µg/mL (≈ 4.11 µM) | 3 | MIC [1, 32]: > 128 µg/mL; MIC [17]: > 128 µg/mL; MIC [18]: > 128 µg/mL; MIC [8, 33]: 1 µg/mL (≈ 4.11 µM); MIC [9, 34]: > 128 µg/mL |
| O=C(NNc1ccc(Cl)cc1)c1ccc(F)cc1F [Compound 1e] | > 64 µg/mL | > 64 µg/mL | 0.25 µg/mL (≈ 0.884 µM) | 16 µg/mL (≈ 56.6 µM) | > 64 µg/mL | 4 to 16 µg/mL (≈ 14.2 to 56.6 µM) | 17 | 12 | 5 | 8 | 0.25 µg/mL (≈ 0.884 µM) | > 64 µg/mL | 16 µg/mL (≈ 56.6 µM) | > 64 µg/mL | > 64 µg/mL | 0.25 µg/mL (≈ 0.884 µM) | 0.25 µg/mL (≈ 0.884 µM) | 1 | – |
| O=C(NNc1cccc(F)c1)c1ccc2ccccc2n1 [Compound 12a] | – | – | – | – | – | – | 8 | 21 | 14 | – | – | – | – | – | – | – | – | – | inhibition of growth [19]: 40%; hemolysis [20]: 20% |
| O=C(NNc1cccc(Cl)c1)c1ccccn1 [Compound 2b] | > 64 µg/mL | > 64 µg/mL | 2 µg/mL (≈ 8.07 µM) | 4 µg/mL (≈ 16.1 µM) | 16 µg/mL (≈ 64.6 µM) | 4 to 16 µg/mL (≈ 16.1 to 64.6 µM) | 13 | 13 | 12 | 2 | 1 µg/mL (≈ 4.04 µM) | 16 µg/mL (≈ 64.6 µM) | 4 µg/mL (≈ 16.1 µM) | > 64 µg/mL | > 64 µg/mL | 2 µg/mL (≈ 8.07 µM) | < 0.5 µg/mL | 3 | MIC [1, 32]: > 128 µg/mL; MIC [17]: 16 µg/mL (≈ 64.6 µM); MIC [18]: 8 µg/mL (≈ 32.3 µM); MIC [8, 33]: ≤ 0.5 µg/mL; MIC [9, 34]: 8 µg/mL (≈ 32.3 µM) |
